The test system of series [1] is lectin pathway (MBL) in human serum. Kind of series: Inhibition of activity of lectin pathway (MBL) in human serum (WIESLAB Complement System MBL Pathway kit). The format is biochemical. The settings on record: 1% human serum. The procedure: The inhibition of the activity of the lectin pathway (MBL) in human serum by compounds was detected using a WIESLAB® Complement System MBL Pathway kit (SVAR, COMPLMP320). Test compounds were each serially diluted in a buffer (Diluent MP), and 1% human serum was incubated with the diluted compound solution for 15 min at room temperature. 100 μL of the mixture was added to a microplate and incubated at 37° C. for 60 min. The liquid in the wells was discarded, and the microplate was washed three times with a washing solution. A Conjugate antibody solution was added at 100 μL/well, and the resulting mixture was incubated for 30 min at 25° C. The liquid in the wells was discarded, and the microplate was washed three times with a washing solution; a substrate solution was added at 100 μL/well, and the resulting mixture was incubated for 30 min at 25° C.; the terminator was added at 50 μL/well, and the absorbance at 405 nm was detected within 30 min by using a microplate reader.

Series [2] in a line: In vivo pharmacokinetic study in SD rats. Conditions: clear. On the procedure:
After adaptive feeding, the SPF SD rats were each subjected to a single administration of 1 mg/kg or 3 mg/kg of the compound of the present disclosure intragastrically or by tail vein bolus injection. Plasma was collected at specific time points after administration, and the concentration of the compound in plasma was detected by LC-MS/MS (AB Sciex Qtrap 4500).

Where [3] appears, read: Sprague-Dawley (SD), rat, plasma, 1 mg/kg, IV, not fasting.
Where [4] appears, read: Sprague-Dawley (SD), rat, plasma, 1 mg/kg, IV, not fasting, read-out: Cmax.
[5] abbreviates: Sprague-Dawley (SD), rat, plasma, 1 mg/kg, PO, fasting.
The mark [6] stands for this setting: Sprague-Dawley (SD), rat, plasma, 1 mg/kg, PO, fasting, read-out: Cmax.

Where two headings read alike, the source gives them in different places.

As to `C[C@H](NC(=O)[C@H]1C[C@H](Cc2ccc(Cl)cc2)CN1)C(=O)NC1CCc2nc(N)ccc21` (stereo partly drawn) [Compound L003, (2R,4S)—N-((2S)-1-((2-amino-6,7-dihydro-5H-cyclopenta[b]pyridin-5-yl)amino)-1-oxopropan-2-yl)-4-(4-chlorobenzyl) pyrrolidine-2-carboxamide], 5.17 nM corresponded to half-maximal inhibition in series [1] (IC50). For the same compound, in series [2] (1 mg/kg, IV, not fasting), the AUClast was 95060 ± 770 ng·h/mL, the peak concentration (Cmax) turned out to be 25400 ± 1940 ng/mL and the T1/2 was 5.84 ± 0.55 h. Moreover, in series [2] (1 mg/kg, PO, fasting), the AUClast stood at 11167 ± 1986 ng·h/mL, the peak concentration (Cmax) stood at 1777 ± 394 ng/mL and the T1/2 turned out to be 5.89 h.

Regarding “(2R)—N-((2S)-1-((2-amino-6,7-dihydro-5H-cyclopenta[b]pyridin-5-yl)amino)-1-oxopropan-2-yl)-4-phenyl-1,2,3,6-tetrahydropyridine-2-carboxamide [Compound L023-IS-02]”, the IC50 in series [1] is 3.36 nM. In series [2] (1 mg/kg, IV, not fasting), the AUClast was 21567 ± 2996 ng·h/mL, the Cmax was found to be 17400 ± 1026 ng/mL and the T1/2 is 3.93 ± 0.18 h. In series [2] (3 mg/kg, PO, fasting), this compound displayed an AUClast of 17996 ± 2579 ng·h/mL, a Cmax of 4340 ± 162 ng/mL and a T1/2 of 4.20 ± 0.54 h.

`C[C@H](NC(=O)[C@H]1CC(C(F)(F)c2ccc(F)cc2)CN1)C(=O)N[C@@H]1CCc2nc(N)ccc21` (stereo partly drawn) [Compound L050, (2R)—N—((S)-1-(((R)-2-amino-6,7-dihydro-5H-cyclopenta[b]pyridin-5-yl)amino)-1-oxopropan-2-yl)-4-(difluoro (4-fluorophenyl)methyl) pyrrolidine-2-carboxamide] displayed an IC50 in series [1] of 2.64 nM. In series [2] (1 mg/kg, IV, not fasting), the AUClast turned out to be 16723 ± 860 ng·h/mL, the Cmax was determined as 27167 ± 1299 ng/mL and the T1/2 was 2.13 ± 0.25 h. In series [2] (1 mg/kg, PO, fasting), this compound yielded an AUClast of 3638 ± 335 ng·h/mL, a maximum concentration (Cmax) of 1373 ± 162 ng/mL and a T1/2 of 2.21 ± 0.27 h.

Take `C[C@H](NC(=O)[C@H]1C=C(c2ccccc2F)CCN1)C(=O)N[C@@H]1CCc2nc(N)ccc21` [Compound L082, (R)—N—((S)-1-(((R)-2-amino-6,7-dihydro-5H-cyclopenta[b]pyridin-5-yl)amino)-1-oxopropan-2-yl)-4-(2-fluorophenyl)-1,2,5,6-tetrahydropyridine-2-carboxamide]: half-maximal inhibition in series [1] (IC50) required 8.85 nM. Also, the AUC(0-t) in series [2] (setting [3]) came to 24700 ± 1030 ng·h/mL; in series [2] (setting [5]), 6110 ± 1210 ng·h/mL. For the same compound, the half-life in series [2] (setting [3]) is 3.21 ± 0.19 h; in series [2] (setting [5]) it was 2.85 ± 0.05 h. Further, the Cmax in series [2] (setting [4]) came to 18600 ± 1960 ng/mL; in series [2] (setting [6]) it was 1430 ± 283 ng/mL.

In series [1], `C[C@H](NC(=O)[C@@H]1C=C(c2ccc(F)c(F)c2)CCN1)C(=O)N[C@@H]1CCc2nc(N)ccc21` (single isomer, unassigned) [Compound L069-IS-02] returned a concentration for half-maximal inhibition (IC50) of 17.4 nM. Besides, the AUC(0-t) in series [2] (setting [3]) was 20000 ± 3840 ng·h/mL; in series [2] (setting [5]) it was 6930 ± 968 ng·h/mL. Moreover, the half-life in series [2] (setting [3]) was 3.39 ± 0.17 h; in series [2] (setting [5]) it was 3.37 h. Further, the peak concentration (Cmax) was 15700 ± 1130 ng/mL in series [2] (setting [4]) and 1190 ± 162 ng/mL in series [2] (setting [6]).

With `C[C@H](NC(=O)C1C=C(c2ccc(F)cc2)CCN1)C(=O)N[C@@H]1CCc2nc(N)ccc21` (single isomer, unassigned) [Compound L064-IS-02], the IC50 in series [1] was 7.57 nM. Further, the area under the curve AUC(0-t) was found to be 15600 ± 5150 ng·h/mL in series [2] (setting [3]) and 2630 ± 245 ng·h/mL in series [2] (setting [5]). Further, the half-life is 4.18 ± 1.02 h in series [2] (setting [3]) and 5.57 ± 1.46 h in series [2] (setting [5]). Also, the maximum concentration (Cmax) is 16000 ± 2070 ng/mL in series [2] (setting [4]) and 875 ± 155 ng/mL in series [2] (setting [6]).

Turning to `C[C@H](NC(=O)[C@H]1C=C(c2cccc(F)c2F)CCN1)C(=O)N[C@@H]1CCc2nc(N)ccc21` [Compound L084, (R)—N—((S)-1-(((R)-2-amino-6,7-dihydro-5H-cyclopenta[b]pyridin-5-yl)amino)-1-oxopropan-2-yl)-4-(2,3-difluorophenyl)-1,2,5,6-tetrahydropyridine-2-carboxamide], the IC50 in series [1] is 13.3 nM. The AUC(0-t) in series [2] (setting [3]) was determined as 26000 ± 1480 ng·h/mL; in series [2] (setting [5]), 6880 ± 1430 ng·h/mL. The half-life in series [2] (setting [3]) is 3.68 ± 0.22 h; in series [2] (setting [5]), 3.09 ± 0.05 h. Also, the Cmax in series [2] (setting [4]) came to 18200 ± 929 ng/mL; in series [2] (setting [6]) it was 2140 ± 664 ng/mL.

With `Nc1ccc2c(n1)CC[C@H]2NC(=O)[C@H]1[C@H]2C[C@H]2CN1C(=O)[C@H]1C[C@H](Cc2ccc(F)cc2)CN1` [Compound L055-IS-02, (1S,2R,5R)—N—((R)-2-amino-6,7-dihydro-5H-cyclopenta [b]pyridin-5-yl)-3-((2R,4S)-4-(4-fluorobenzyl)pyrrolidine-2-carbonyl)-3-azabicyclo[3.1.0]hexane-2-carboxamide], the half-maximal inhibitory concentration (IC50) in series [1] was 7 nM.

Compound `C[C@H](NC(=O)[C@H]1CN(Cc2ccccc2)CCN1)C(=O)NC1CCc2nc(N)ccc21` (stereo partly drawn) [Compound L024, (2R)—N-((2S)-1-((2-amino-6,7-dihydro-5H-cyclopenta[b]pyridin-5-yl)amino)-1-oxopropan-2-yl)-4-benzylpiperazine-2-carboxamide] registered a 50% inhibitory concentration (IC50) in series [1] of 6.34 nM.

Regarding `C[C@H](NC(=O)[C@@H]1C=C(c2ccc(F)c(Cl)c2)CCN1)C(=O)N[C@@H]1CCc2nc(N)ccc21` [Compound L072-IS-02, (S)-N-((S)-1-(((R)-2-amino-6,7-dihydro-5H-cyclopenta[b]pyridin-5-yl)amino)-1-oxopropan-2-yl)-4-(3-chloro-4-fluorophenyl)-1,2,5,6-tetrahydropyridine-2-carboxamide], the IC50 in series [1] turned out to be 9.26 nM.

In series [1], `Nc1ccc2c(n1)CCC2NC(=O)[C@@H]1CCCN1C(=O)[C@H]1C[C@H](Cc2ccc(F)cc2)CN1` (stereo partly drawn) [Compound L031, (2S)—N-(2-amino-6,7-dihydro-5H-cyclopenta[b]pyridin-5-yl)-1-((2R,4S)-4-(4-fluorobenzyl)pyrrolidine-2-carbonyl) pyrrolidine-2-carboxamide] had an IC50 of 4.49 nM.

In series [1], `C[C@H](NC(=O)[C@@H]1C=C(c2ccc(F)cc2Cl)CCN1)C(=O)N[C@@H]1CCc2nc(N)ccc21` [Compound L075-IS-02, (S)-N-((S)-1-(((R)-2-amino-6,7-dihydro-5H-cyclopenta[b]pyridin-5-yl)amino)-1-oxopropan-2-yl)-4-(2-chloro-4-fluorophenyl)-1,2,5,6-tetrahydropyridine-2-carboxamide] yielded an IC50 of 4.89 nM.

As for `C[C@H](NC(=O)[C@H]1C[C@@H](c2ccc(F)cc2)CCN1)C(=O)NC1CCc2nc(N)ccc21` (stereo partly drawn) [Compound L033-IS-02, (2R,4S)—N-((2S)-1-((2-amino-6,7-dihydro-5H-cyclopenta[b]pyridin-5-yl)amino)-1-oxopropan-2-yl)-4-(4-fluorophenyl) piperidine-2-carboxamide], in series [1], 2.26 nM corresponded to half-maximal inhibition (IC50).

`C[C@H](NC(=O)[C@H]1C[C@@H](c2ccc(F)c(F)c2)CCN1)C(=O)NC1CCc2nc(N)ccc21` (stereo partly drawn) [Compound L045-IS-02, (2R,4S)-N-((2S)-1-((2-amino-6,7-dihydro-5H-cyclopenta[b]pyridin-5-yl)amino)-1-oxopropan-2-yl)-4-(3,4-difluorophenyl)piperidine-2-carboxamide]: the IC50 in series [1] stood at 4.11 nM.

In the case of `Nc1ccc2c(n1)CC[C@H]2NC(=O)[C@@H]1C[C@@H]2C[C@@H]2N1C(=O)[C@H]1C[C@H](Cc2ccc(F)cc2)CN1` [Compound L104-IS-02, (1S,3S,5S)—N—((R)-2-amino-6,7-dihydro-5H-cyclopenta [b]pyridin-5-yl)-2-((2R,4S)-4-(4-fluorobenzyl)pyrrolidine-2-carbonyl)-2-azabicyclo[3.1.0]hexane-3-carboxamide], half-maximal inhibition in series [1] (IC50) required 0.97 nM.

The record behind these values is patent US20250171414A1, “COMPOUND SERVING AS MASP-2 INHIBITOR, PHARMACEUTICAL COMPOSITION, PREPARATION METHOD THEREFOR, AND USE THEREOF” (WUHAN CREATERNA SCIENCE AND TECHNOLOGY CO., LTD., priority 2022, published 2025).
